This note sets out measurements from patent US20020128434A1, “Alpha-(1,3-dicarbonylenol ether) methyl ketones as cysteine protease inhibitors” (priority 1993, published 2002).

Series [1] concerns the target T1, Cathepsin B, purified from human liver (Homo sapiens, UniProt P07858).
T1 construct: Cathepsin B, purified from human liver; purchased Enzyme Systems Products (Dublin, Calif.); host or cells: human liver (tissue-purified)
Nature of the series: In vitro evaluation of inhibitors with purified cathepsin B. The series is classed as biochemical. The conditions noted are these: purified cathepsin B; read-out: IC50 Cat B. The procedure:
Enzyme: Cathepsin B, purified from human liver, is from Enzyme Systems Products (Dublin, Calif.). The activity is 50 mU per ml at 30° C., in 52 mM sodium phosphate, pH 6.2, 31 mM DTT, 2.1 mM EDTA, with 0.2 mM Z—Arg—Arg-7-amino-4-trifluoromethyl-coumarin as a substrate. Specific activity is 8330 mU per mg protein. (1 mU=1 nmol per min.)
Substrate Boc—Leu—Arg—Arg-7-amino-4-trifluoromethyl-coumarin-2HBr is from Enzyme Systems Products (Dublin, Calif.) and is known to be a specific substrate for cathepsin B. A 20 mM solution is made in DMF and stored at […].
Candidate inhibitors are dissolved in DMF and diluted to 20 mM and stored at […]. Dilutions are made in assay buffer.
The percent inhibition and the inhibitor concentration at which the enzyme is 50% inhibited (IC50) are determined as follows. Five μl of assay buffer (50 mM potassium phosphate pH 6.2, 2 mM EDTA, 5 mM DTT) on ice for 30 min. The inhibition is initiated by the addition of […] inhibitor each to the 480 μl aliquots. The 485 μl aliquot with enzyme is used as a control and thus receives no inhibitor. The enzyme/inhibitor mixtures are incubated 10 min. on ice and assayed for cathepsin B activity as follows:
Cathepsin B assay: To 490 μl of pre-incubated inhibitor/enzyme mixtures in assay buffer in 0.5 ml cuvette at 37° is added 10 μl of the substrate. Final inhibitor concentrations become 2000 nM, 200 nM, and 20 nM for the 200 μM, 20 μM and 2 μM stock concentrations, respectively. Activity is followed by release of free AFC over 5 min. The change in fluorescence is (fluorescence units at t=6)−(fluorescence units at t=1) with a Perkin-Elmer LS-5B spectrofluorometer (ex=400 nm, em=505 nm). The percent inhibition is determined by comparing the change in fluorescence units of the three sample concentrations of inhibited enzyme to the change in fluorescence units of the control enzyme. The percent inhibition is calculated as:
100−(fl. units of sample/fl. units of control×100).
The IC50 is ascertained by plotting percent inhibition vs. inhibitor concentration on the log scale. The IC50 is the concentration of the inhibitor (nM) at which the enzyme is inhibited by 50%.

A further series is described as follows: physchem. Particulars: 20 °C, water, thermodynamic from solid.
In series [2] the test system is calpain (Calcium Activated Neutral Protease). Nature of the series: Calpain inhibition. The series is classed as biochemical. The conditions noted are these: incubated 30 minutes at 37° C.; tested at 20 μM, 2 μM, 200 nM. The procedure:
The percent inhibition of one inhibitor, Acetyl-Leucyl-Leucyl-Phenylalanyl-α-(4-oxy-dihydrofuran-2-one) methyl ketone, on calpain (Calcium Activated Neutral Protease) was determined as follows. A 50 mM Hepes, 10 mM calcium chloride, 5 mM cysteine, 1 mM β-mercaptoethanol, pH 7.5 buffer solution was prepared. The enzyme was activated for 1 minute in the buffer solution at room temperature. Inhibitor was prepared as stock solution in dimethylformamide. Inhibitor and enzyme/buffer were incubated for 30 minutes at 37° C. Final concentrations of inhibitor were 20 μM, 2 μM, and 200 nM. Enzyme activity was followed with 200 μM Boc-Valnyl-Leucyl-Lysine-AFC substrate by the release of free fluorescent detecting group over minutes at 37° C., as compared to the control.

The subject of the next series is malarial inhibition. Nature of the series: Another test of malarial inhibition.
The target of the next series is T2, Cathepsin H (Homo sapiens, UniProt P09668).
T2 sequence (P09668 98-335): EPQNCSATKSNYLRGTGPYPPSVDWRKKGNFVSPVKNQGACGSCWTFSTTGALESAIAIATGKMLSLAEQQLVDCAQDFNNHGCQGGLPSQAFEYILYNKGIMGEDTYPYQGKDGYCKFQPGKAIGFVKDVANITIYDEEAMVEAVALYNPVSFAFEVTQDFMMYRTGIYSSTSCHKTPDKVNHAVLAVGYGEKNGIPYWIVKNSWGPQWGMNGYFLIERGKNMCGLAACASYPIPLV
Nature of the series: Cathepsin H inhibition. The series is classed as biochemical.

Series [3] relates to T. cruzi. Nature of the series: Inhibition of T. cruzi in infected cells, cell line J774. The series is classed as cell-based. The conditions noted are these: days before cell monolayer is destroyed by infection; 20 μM, daily change of medium plus inhibitor. The procedure:
(§1) Survival time is measured in days before the cell monolayer is destroyed by the infection. Irradiated BHK and J774 cells (six well plates) were infected with T. cruzi and simultaneously treated with 20 μM (3 ml total volume) with daily change of culture medium+plus inhibitor).
(§2) Cultivation and preparation of T. cruzi. Cloned and uncloned populations were derived from the strains Brasil, and CA-I and are cryopreserved in liquid nitrogen. Axenically cultured epimastigotes are maintained in exponential growth phase by weekly passage in Brain Heart Infusion-Tryptose medium (BHT media as given in Cazzulo, Cazzulo, Martinez, and Cazzulo, Some Kinetic Properties of a Cysteine Proteinase (Cruzipain) from Trypanosoma Cruzi. 33 Mol. Biochem. Parasitol. 33-42 (1990)), supplemented with […] 10% (v/v) heat inactivated fetal calf serum (FCS). Different host cell lines (J774 mouse macrophage, BHK, etc.) are cultured with RPMI-1640 supplemented with 5% FCS at 37° in a humidified atmosphere containing 5% CO2. Trypomastigotes liberated from the host cells are used to infect new cultures for serial maintenance of the parasite in cell culture. The protocols used for the in vitro assays of cysteine protease inhibitors are essentially as described by Harth, Andrews, Mills, Engel, Smith, and McKerrow, Peptide-Fluoromethyl Ketones Arrest Intracellular Replication and Intercellular Transmission of Trypanosoma Cruzi. 58 Mol. Biochem. Parasitol. 17-24 (1993), with the exception that in some experiments, the host cells are irradiated (2400 RADs) before infection to prevent them from dividing.

For series [4], the system named is T. cruzi. Nature of the series: Inhibition of T. cruzi in infected cells, cell line BHK. The series is classed as cell-based. The conditions noted are these: days before cell monolayer is destroyed by infection; 20 μM, daily change of medium plus inhibitor. On the procedure: as §1, §2

Converted amounts (≈) assume the structure as drawn. Where a name gives a salt, the structure may show the parent alone. Read-outs that look alike come from different tables or passages of the source. *1 amine or outer side, *2 acyl side, *3 side chain or, on linkers, in order; H or OH if unused. Where a SMILES comes first, the peptide text is derived from it. [ ]: non-standard residue; d: D form. The star is where a group is joined. ξ: configuration not given here. hPhe = N[C@@H](CCc1ccccc1)C(=O)O; Morpholide = C1CN(*)CCO1; ξF = NC(Cc1ccccc1)C(=O)O; CO = O=C([*:1])[*:2]; CH2F = FC*

Turning to `O=C1C=C(OCC(=O)[C@H](CCc2ccccc2)NC(=O)[C@H](Cc2ccccc2)NC(=O)N2CCOCC2)CO1` [Compound 12, N-Morpholinecarbonyl-L-phenylalanyl-L-homophenylalanyl-α-(4-oxy-dihydrofuran-2-one) methyl ketone], in series [1], the IC50 was 10 nM. Moreover, the solubility in “physchem” was determined as 277 µg/mL (≈ 517 µM).
The molecule “benzoxycarbonyl-phenylalanyl-alanylfluoromethyl ketone [Z—Phe—Ala—CH2F]” gave an aqueous solubility (14° C.) of 45 µg/mL.
On to `CC(=O)N[C@@H](CC(C)C)C(=O)N[C@@H](CC(C)C)C(=O)N[C@@H](Cc1ccccc1)C(=O)COC1=CC(=O)OC1` [Acetyl-Leucyl-Leucyl-Phenylalanyl-α-(4-oxy-dihydrofuran-2-one) methyl ketone], for which the “concentration at which inhibitor showed activity against calpain” value in series [2] is reported as “less than 2 μM”.
In the case of `CCC1OC(=O)C(OCC(=O)[C@H](CCc2ccccc2)NC(=O)[C@H](Cc2ccccc2)NC(=O)N2CCOCC2)=C1C` (stereo partly drawn) [Compound A2, N-Morpholinecarbonyl-L-phenylalanyl-L-homophenylalanyl-α-(3-oxy-5-ethyl-4-methyl 2(5H)furanone) methyl ketone], the malarial inhibition result with malarial inhibition was “particularly effective”.
Take `Cc1cc(OCC(=O)[C@@H](N)CCc2ccccc2)cc(=O)o1` [L-Homophenylalanyl-α-(4-oxy-(6-methyl-2-pyrone)methyl ketone]: the IC50 against Cathepsin H came to 118 nM.
Turning to `O=C(N[C@@H](CCc1ccccc1)C(=O)CF)C(Cc1ccccc1)NC(=O)N1CCOCC1` (stereo partly shown) [Mu—Phe—HPhe—CH2F, Morpholine-carbonyl-phenylalanyl-homophenylalanyl-fluoromethylketone, reference compound] ({Morpholide-CO}-[ξF]-[hPhe]-CH2F), in the series on T. cruzi [3], the “Survival Time, Cell line J774” value is at least 16 days. In addition, the “Survival Time, Cell line BHK” value with T. cruzi [4] was at least 16 days. The molecule further had an aqueous solubility (20° C., distilled and deionized water) of 140 µg/mL (≈ 307 µM).
Regarding `N[C@@H](CCc1ccccc1)C(=O)COC1=CC(=O)OC1` [L-Homophenyl-α-(4-oxy-dihydrofuran-2-one)methyl ketone hydrochloride], at Cathepsin H, the IC50 is 251 nM.

Usually IC50 stands for the concentration that inhibits the measured activity by half. For orientation: solubility means the concentration that dissolves in the medium under given conditions. Higher therefore signals much dissolved substance. One may read the aqueous solubility as how much of the substance goes into solution per volume. A low value points to little dissolved substance.
